# Measurements: US20030219400A1 (priority 2002, published 2003)
# Key:
# [1] = test system: macrophage release of pro-inflammatory cytokines, including TNF and IL1B; details: intraventricular instillation; cited from earlier work
# [2] = test system: SBS patients; details: human, in vivo
# [3] = test system: PLDS patients; format: in vivo, human
# Method: An orally administered checklist monitored symptoms; sequential VCS testing was performed. […] No antibiotics or other therapeutic interventions were administered during the study. Diagnostic parameters used by referring physicians included a history of erythema chronicum migrans (ECM) rash, ELISA assay, Borrelia burgdorferi Western blot, LUAT assay, PCR, CSF antibodies to B. burgdorferi and culture. Patients with a clinical diagnosis of PLDS but without a positive serologic test were included at the discretion of the attending physician.
compound,measurement,setting,value
Ser-Tyr-Ser-Met-Glu-His-Phe-Arg-Trp-Gly-Lys-Pro-Val [αMSH],"macrophage release of pro-inflammatory cytokines, including TNF and IL1B",[1],down-regulation of macrophage release of pro-inflammatory cytokines
cholestyramine [CSM],other complications of therapy,[2],No other significant complications of therapy were noted
CCc1ccc(CCOc2ccc(CC3SC(=O)NC3=O)cc2)nc1 (stereo not shown) [pioglitazone],"adverse effects from pioglitazone, including hypoglycemia or abnormal liver function tests",[3]; 45 mg daily for 10 days,No patients had adverse effects
same,"patients with significant intensification of symptoms, not severe enough to stop treatment","[3]; of 241 patients receiving pioglitazone, CSM added on day 6",5 patients
